Measured values as given in patent publication US12043870B2, “Methods and compositions for detecting and modulating an immunotherapy resistance gene signature in cancer” (The Broad Institute, Inc., priority 2017, dated 2024).
Values joined by “and” are separate entries in the source; they are usually repeats but may differ in a detail not shown here. Equal values may be shown once.

Legend:
IGR37 = assay: scRNA-seq of melanoma cell line before and after treatment with abemaciclib for 1 week; type: cell-based, human; conditions: IGR37 (RB1-sufficient); abemaciclib 1 week; 10% prior to treatment
Excerpt: (§1) To determine this effect in melanoma, Applicants identified melanoma cell lines in the Cancer Cell Line Encyclopedia (CCLE) with the strongest expression of the uICR signature, including IGR37, UACC257 (both RB-sufficient) and A2058 (RB-deficient). Applicants performed scRNA-seq on these cell lines before and after treatment with abemaciclib for 1 week (FIG. 41). In both IGR37 and UACC257, Applicants saw a decrease in the expression of the uICR state (P<3.59*10^−34, one-sided t-test). […] This population decreased from 10% before treatment (2,454 cells) to 2% in the post-treatment condition (1,570 cells).
(§2) To test this hypothesis, Applicants studied the effect of abemaciclib on the immune resistance program in melanoma cell lines. […] Applicants profiled each cell line with scRNA-seq before and after treatment with abemaciclib for 1 week (FIGS. 49D-E), analyzing over 23,000 cells in these and follow-up conditions (below). […]
(§3) Established melanoma cell lines […] and A2058 were acquired from the Cancer Cell Line Encyclopedia (CCLE) from the Broad Institute. […] Cells were lifted off culture dishes using Versene solution (Life Technologies), washed twice in 1×PBS, counted and resuspended in PBS supplemented with 0.04% BSA for loading for scRNA-seq with the 10X Genomics platform.

UACC257 = assay: as above; type: cell-based, human; conditions: UACC257 (RB1-sufficient); abemaciclib 1 week; 10% prior to treatment
Excerpt: as §1, §2, §3

[1] = test system: human melanoma cells (Melanoma cell line 2686); assay: Abemaciclib doubling time and cytostatic effect; type: cell-based; conditions: abemaciclib 500 nM
Protocol: Cell number and viability were determined using the Countess™ II FL Automated Cell Counter (ThermoFisher) on days 2, 4 and 6. All experiments were performed in triplicates. Cell doubling per 24 hours was determined based on cell numbers comparing cells seeded and on day 6 using the following formula: duration (in days) x log(2)/log(final cell number) - log(initial cell number).

melanoma cells = assay: Measurement of 40 human cytokines/chemokines in conditioned media of abemaciclib or DMSO treated cancer cells

Compound: CCN1CCN(Cc2ccc(Nc3ncc(F)c(-c4cc(F)c5nc(C)n(C(C)C)c5c4)n3)nc2)CC1 [abemaciclib]
- fraction of cells with exceptionally strong expression of the immune resistance (uICR) program ("immune resistant" cells) post-treatment (IGR37): 2%
- fraction of cells with exceptionally strong expression of the immune resistance program ("immune resistant" cells) post-treatment (UACC257): 1% and 0.6%
- cytotoxic effects [1]: do not find significant cytotoxic effects
- rate of proliferation ([1]; DMSO 0.64): 0.3 doublings/24 hrs
- Fold change (abemaciclib vs. DMSO treatment) (melanoma cells; Hu 6Ckine/CCL21): 0.9700
- Fold change (abemaciclib vs. DMSO treatment) (melanoma cells; Hu CTACK/CCL27): 1.0834
- Fold change (abemaciclib vs. DMSO treatment) (melanoma cells; Hu ENA-78/CXCL5): 1.0188
- Fold change (abemaciclib vs. DMSO treatment) (melanoma cells; Hu Eotaxin-3/CCL26): 3.0279
- Fold change (abemaciclib vs. DMSO treatment) (melanoma cells; Hu Eotaxin/CCL11): 0.9599
- Fold change (abemaciclib vs. DMSO treatment) (melanoma cells; Hu Fractalkine/CX3CL1): 2.1863
- Fold change (abemaciclib vs. DMSO treatment) (melanoma cells; Hu GCP-2/CXCL6): 0.6386
- Fold change (abemaciclib vs. DMSO treatment) (melanoma cells; Hu GM-CSF): 1.0191
- Fold change (abemaciclib vs. DMSO treatment) (melanoma cells; Hu Gro-a/CXCL1): 0.9135
- Fold change (abemaciclib vs. DMSO treatment) (melanoma cells; Hu Gro-b/CXCL2): 0.7471
- Fold change (abemaciclib vs. DMSO treatment) (melanoma cells; Hu I-309/CCL1): 1.0389
- Fold change (abemaciclib vs. DMSO treatment) (melanoma cells; Hu I-TAC/CXCL11): 0.9524
- Fold change (abemaciclib vs. DMSO treatment) (melanoma cells; Hu IL-1b): 1.0719
- Fold change (abemaciclib vs. DMSO treatment) (melanoma cells; Hu IL-2): 0.5882
- Fold change (abemaciclib vs. DMSO treatment) (melanoma cells; Hu IL-4): 1.6605
- Fold change (abemaciclib vs. DMSO treatment) (melanoma cells; Hu IL-6): 0.3788
- Fold change (abemaciclib vs. DMSO treatment) (melanoma cells; Hu IL-8): 0.7253
- Fold change (abemaciclib vs. DMSO treatment) (melanoma cells; Hu IL-10): 1.0079
- Fold change (abemaciclib vs. DMSO treatment) (melanoma cells; Hu IL-16): 0.8482
- Fold change (abemaciclib vs. DMSO treatment) (melanoma cells; Hu IP-10/CXCL10): 0.9103
- Fold change (abemaciclib vs. DMSO treatment) (melanoma cells; Hu MCP-1/CCL2): 0.7175
- Fold change (abemaciclib vs. DMSO treatment) (melanoma cells; Hu MCP-2/CCL8): 1.0388
- Fold change (abemaciclib vs. DMSO treatment) (melanoma cells; Hu MCP-3/CCL7): 1.0422
- Fold change (abemaciclib vs. DMSO treatment) (melanoma cells; Hu MCP-4/CCL13): 0.8887
- Fold change (abemaciclib vs. DMSO treatment) (melanoma cells; Hu MDC/CCL22): 1.1142
- Fold change (abemaciclib vs. DMSO treatment) (melanoma cells; Hu MIF): 2.9587
- Fold change (abemaciclib vs. DMSO treatment) (melanoma cells; Hu MIP-1a/CCL3): 1.0350
- Fold change (abemaciclib vs. DMSO treatment) (melanoma cells; Hu MIP-3a/CCL20): 3.4000
- Fold change (abemaciclib vs. DMSO treatment) (melanoma cells; Hu MIP-3b/CCL19): 0.8717
- Fold change (abemaciclib vs. DMSO treatment) (melanoma cells; Hu MIP-1d/CCL15): 1.0809
- Fold change (abemaciclib vs. DMSO treatment) (melanoma cells; Hu SCYB16/CXCL16): 1.1278
- Fold change (abemaciclib vs. DMSO treatment) (melanoma cells; Hu SDF1a + b/CXCL12): 0.8885
- Fold change (abemaciclib vs. DMSO treatment) (melanoma cells; Hu TARC/CCL17): 1.0104
- Fold change (abemaciclib vs. DMSO treatment) (melanoma cells; Hu TECK/CCL25): 1.5510
- Fold change (abemaciclib vs. DMSO treatment) (melanoma cells; Hu TNF-a): 0.7465
